From patent publication US20250134104A1, “AGROCHEMICAL ADJUVANTS” (Croda International Plc, priority 2022, published 2025)

System: Botrytis cinerea (ATCC 90479)
Assay: Botrytis cinerea hyphal growth inhibition on PDA agar (colony diameter), adjuvant with or without pyraclostrobin
Assay type: cell-based
Conditions: for inherent fungicidal activity on their own: adjuvant alone, at any of the concentrations tested; for Fold Change in Growth Inhibition: adjuvant concentration 50 μg/mL (Ia-Ie) or 64 μg/mL (If, Ig), 48 hours at 22° C., relative to fungicide alone; for fold increase in fungicidal activity compared to pyraclostrobin alone: pyraclostrobin at 0.06 μg/mL, against B. cinerea
Method: Percent Inhibition-The percent inhibition will be understood to represent the amount the fungicide and/or adjuvant that inhibits the visible growth of the microorganism after 48 hours incubation at 22° C. relative to vehicle treated controls. This is calculated using the following formula:
ØC=diameter of the colony grown on agar supplemented with vehicle (i.e. vehicle treated control), and
ØT=diameter of the colony grown on agar supplemented with fungicide and/or adjuvant formulated in an appropriate vehicle (i.e., solvent such as water C2H5OH, CH3OH, CH3CN, DMSO).
Fold Change—The fold change is a measure of the adjuvant/fungicide combination in inhibiting a microorganism compared to the fungicide alone. This indicates how the adjuvant performs relative to the fungicide alone. This is calculated using the following formula:
where: • INHAF=percent inhibition of fungal growth when treated with fungicide and adjuvant, and • INHF=percent inhibition of fungal growth when treated with fungicide alone.
Botrytis cinerea (ATCC 90479) was cultured on Difco Potato Dextrose Agar (PDA) for 7 days with diurnal UV cycles (12 h UV light and 12 h dark). Spores were harvested in a buffered, sterile saline solution (w/v: 0.9% NaCl with 1% Tween 80) and counted using a haemocytometer. The spore suspension was adjusted to a final concentration of 8.5x10^6 spores/mL to create a standardised inoculum.
To prepare hyphal fragments for adjuvant testing, 8.5x10^4 spores were used to inoculate 10 mL of Difco Potato Dextrose Broth in a 150×25 mm tube. The tube was incubated at 220 RPM, 22° C. for 48 hours.
To create hyphal fragments from the culture, the culture was transferred to a 50 mL plastic conical tube containing approximately 20 sterile 5 mm diameter glass beads and vortexed for 5 min. After vortexing the tube was allowed to stand for 5 min to allow large mycelial clumps to settle and then the top layer containing hyphal fragments was removed and used as inocula for growth inhibition assays.
Fungicides and adjuvants were dissolved in methanol and added to molten PDA (˜50° C.) and then the agar was distributed in the wells of 12 well multiwell plates (1 mL/well). The plates were cooled to room temperature and 10 μL of hyphal inoculum was added to the centre of each well. The plates were incubated at 22° C. for 48 hours and then the colony diameter was measured using a digital caliper. The biological growth control consisted of hyphae and vehicle (0.07% methanol), the negative control was media and vehicle (0.07% methanol).

[1] = with Pyra (pyraclostrobin) 0.0313 μg/mL
[2] = with Pyra (pyraclostrobin) 0.0625 μg/mL

O=C1CNC(=O)C(Cc2ccccc2)N1 (centres unmarked) [DKP (Ib)]
inherent fungicidal activity on their own: did not demonstrate any inherent fungicidal activity
Fold Change in Growth Inhibition [1]: 1.14
Fold Change in Growth Inhibition [2]: 1.45

CN1C(=O)C2CCCN2C(=O)C1Cc1ccccc1 (centres unmarked) [DKP (Ic)]
inherent fungicidal activity on their own: did not demonstrate any inherent fungicidal activity
fold increase in fungicidal activity compared to pyraclostrobin alone: 1.52 fold
Fold Change in Growth Inhibition [1]: 1.23
Fold Change in Growth Inhibition [2]: 1.52

O=C1NCC(=O)N2CCCC12 (centres unmarked) [DKP (Ie)]
inherent fungicidal activity on their own: did not demonstrate any inherent fungicidal activity
fold increase in fungicidal activity compared to pyraclostrobin alone: 1.56 fold
Fold Change in Growth Inhibition [1]: 0.96
Fold Change in Growth Inhibition [2]: 1.56

O=C1NC(Cc2ccccc2)C(=O)N2CCC=C12 (centres unmarked) [DKP (Ig), cyclo (-Phe-dhPro) diketopiperazine]
inherent fungicidal activity on their own: did not demonstrate any inherent fungicidal activity
Fold Change in Growth Inhibition [1]: 1.22
Fold Change in Growth Inhibition [2]: 1.27

O=C1NC(Cc2ccccc2)C(=O)N2CCCCC12 (centres unmarked) [DKP (If), cyclo (-Phe-Pip) diketopiperazine]
inherent fungicidal activity on their own: did not demonstrate any inherent fungicidal activity
Fold Change in Growth Inhibition [1]: 1.34
Fold Change in Growth Inhibition [2]: 1.28

O=C1NC(Cc2ccccc2)C(=O)N2CCCC12 (centres unmarked) [DKP (Ia)]
inherent fungicidal activity on their own: did not demonstrate any inherent fungicidal activity
Fold Change in Growth Inhibition [1]: 1.32
Fold Change in Growth Inhibition [2]: 1.15

CN1CC(=O)N(C)C(Cc2ccccc2)C1=O (centres unmarked) [DKP (Id)]
inherent fungicidal activity on their own: did not demonstrate any inherent fungicidal activity
Fold Change in Growth Inhibition [1]: 1.09
Fold Change in Growth Inhibition [2]: 1.35
